Data as given in ChEMBL document CHEMBL2040814, “Synthesis and biological activity of substituted 2,4-diaminopyrimidines that inhibit Bacillus anthracis” (2012).
≈ marks a conversion by molar mass, not a printed value.

Test system: Bacillus anthracis
Test: Antibacterial activity against Bacillus anthracis Sterne after 16 hrs by alamar blue broth microdilution technique
Format: functional

| SMILES | MIC [µg/mL] |
| --- | --- |
| CCCC1c2ccccc2C=NN1C(=O)/C=C/c1cc(Cc2cnc(N)nc2N)cc(OC)c1OC (racemic) | 1 (≈ 2.06 µM) |
| COc1cc(Cc2cnc(N)nc2N)cc(/C=C/C(=O)N2N=Cc3ccccc3C2C(C)C)c1OC (racemic) | 1 (≈ 2.06 µM) |
| COc1cc(Cc2cnc(N)nc2N)cc(/C=C/C(=O)N2N=Cc3ccccc3C2CCC(F)(F)F)c1OC (racemic) | 1 (≈ 1.85 µM) |
| COc1cc(Cc2cnc(N)nc2N)cc(/C=C/C(=O)N2N=Cc3ccccc3C2CC(C)C)c1OC (racemic) | 1 (≈ 2 µM) |
| CCC(CC)C1c2ccccc2C=NN1C(=O)/C=C/c1cc(Cc2cnc(N)nc2N)cc(OC)c1OC (racemic) | 4 (≈ 7.77 µM) |
| COc1cc(Cc2cnc(N)nc2N)cc(/C=C/C(=O)N2N=Cc3ccccc3C2c2ccccc2C)c1OC (racemic) | 8 (≈ 15 µM) |
| COc1cc(Cc2cnc(N)nc2N)cc(/C=C/C(=O)N2N=Cc3ccccc3C2c2cc(C)cc(C)c2)c1OC (racemic) | 4 (≈ 7.29 µM) |
| COc1cc(Cc2cnc(N)nc2N)cc(/C=C/C(=O)N2N=Cc3ccccc3C2c2cccc(F)c2)c1OC (racemic) | 2 (≈ 3.71 µM) |
| COc1cc(Cc2cnc(N)nc2N)cc(/C=C/C(=O)N2N=Cc3ccccc3C2c2ccc(F)cc2)c1OC (racemic) | 1 (≈ 1.86 µM) |
| COc1cc(Cc2cnc(N)nc2N)cc(/C=C/C(=O)N2N=Cc3ccccc3C2Cc2ccccc2)c1OC (racemic) | 8 (≈ 15 µM) |
| COc1cc(Cc2cnc(N)nc2N)cc(/C=C/C(=O)N2N=Cc3ccccc3C2Cc2ccc(C)cc2)c1OC (racemic) | 4 (≈ 7.29 µM) |
| COc1ccc(CC2c3ccccc3C=NN2C(=O)/C=C/c2cc(Cc3cnc(N)nc3N)cc(OC)c2OC)cc1 (racemic) | 8 (≈ 14.2 µM) |
| COc1cc(Cc2cnc(N)nc2N)cc(/C=C/C(=O)N2N=Cc3ccccc3C2Cc2ccc(OC(F)(F)F)cc2)c1OC (racemic) | 4 (≈ 6.47 µM) |
| COc1cc(Cc2cnc(N)nc2N)cc(/C=C/C(=O)N2N=Cc3ccccc3C2c2ccc(C)cc2)c1OC (racemic) | 1 (≈ 1.87 µM) |
| COc1cc(Cc2cnc(N)nc2N)cc(/C=C/C(=O)N2N=Cc3ccccc3C2C2CCCCC2)c1OC (racemic) | 1 (≈ 1.9 µM) |
| COc1cc(Cc2cnc(N)nc2N)cc(/C=C/C(=O)N2N=Cc3ccccc3C2c2ccccc2)c1OC (racemic) | 0.375 (≈ 0.72 µM) |
